Reference: patent US20250171420A1 (Monte Rosa Therapeutics, Inc., priority 2022, published 2025)

Experiments:
CK1α = molecular target: T1, CK1α (Homo sapiens, UniProt P48729); experiment: CK1α NanoBit Assay (HiBiT-tagged CSNK1A1, HEK293 clonal lines); assay type: cell-based; settings: HEK293 HiBiT-CSNK1A1/LgBiT cells, 24 h incubation
T1 construct: HEK293 clonal lines with CRISPR KI HiBiT tag on CSNK1A1
Summary of the method: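 HEK293 clones carrying a CRISPR knock-in HiBiT tag on CSNK1A1 and stably expressing LgBiT are treated with compound for 24 hours at 37° C, 5% CO2, then read by luminescence. Response is normalized as 100*(S−N)/(P−N) against plate negative and positive controls, and DC50 values are derived.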

[1] = Oral pharmacokinetics in male BALB/c mice; assay type: in vivo; settings: mouse, PO 10 mg/kg, plasma, mean ± SD
Procedure: Male BALB/c mice were administered a discrete, oral (PO) dose of Compound 288, Compound 335, Compound 102, or Compound 303 at 10 mg/kg; all mice were fasted except for mice that were dosed with Compound 288. Male BALB/c mice were fasted overnight and administered a cassette dose, PO dose of Compound 303 and other compounds at 5 mg/kg per compound.
Blood samples were collected serially from three animals/time-point following PO administration of the test compounds to the mice and placed in tubes containing K2EDTA. The blood samples were centrifuged, and the aliquots of the resulting plasma stored frozen at −60 to −90° C.
The plasma samples were analyzed by LC-MS/MS to determine concentrations of the test compounds. The in-life portion of the study and the bioanalysis of plasma samples was conducted at Wuxi (China).
The pharmacokinetic parameters for the tested compounds were calculated by non-compartmental analysis using Phoenix WinNonlin software.

CRBN/DDB1 = CRBN/DDB1 (Homo sapiens, UniProt Q96SW2); experiment: HTRF binding assay (displacement of Cy5-thalidomide probe from CRBN/DDB1); settings: CRBN/DDB1 2.5 nM, Cy5-Thalidomide 100 nM, 30 min; geometric mean; read-out: HTRF_Thali_Disp_DR_geo_IC50
Summary of the method: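 HTRF displacement of Cy5-thalidomide (100 nM) from His-tagged CRBN/DDB1 (2.5 nM) with anti-His Tb cryptate in 20 mM HEPES, 20 mM NaCl, 0.2 mM TCEP, 0.2 mM EDTA, 0.005% Tween20. 10-point 1:3 series, 30 min ambient. 665/620 nm ratio fitted 4-parameter for IC50; Ki by Cheng-Prusoff from geometric-mean IC50.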

T1 sequence (P48729 whole entry): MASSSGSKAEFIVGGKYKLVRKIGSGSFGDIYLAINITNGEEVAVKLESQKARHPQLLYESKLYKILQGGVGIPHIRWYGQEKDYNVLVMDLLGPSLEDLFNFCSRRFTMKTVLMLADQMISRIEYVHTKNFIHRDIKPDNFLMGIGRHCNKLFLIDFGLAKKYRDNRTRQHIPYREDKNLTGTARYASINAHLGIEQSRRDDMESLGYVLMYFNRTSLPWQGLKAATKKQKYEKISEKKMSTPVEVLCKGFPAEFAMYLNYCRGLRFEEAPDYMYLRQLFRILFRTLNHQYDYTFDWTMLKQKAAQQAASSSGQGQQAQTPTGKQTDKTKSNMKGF
T1 sequence (Q96SW2 whole entry, further chain): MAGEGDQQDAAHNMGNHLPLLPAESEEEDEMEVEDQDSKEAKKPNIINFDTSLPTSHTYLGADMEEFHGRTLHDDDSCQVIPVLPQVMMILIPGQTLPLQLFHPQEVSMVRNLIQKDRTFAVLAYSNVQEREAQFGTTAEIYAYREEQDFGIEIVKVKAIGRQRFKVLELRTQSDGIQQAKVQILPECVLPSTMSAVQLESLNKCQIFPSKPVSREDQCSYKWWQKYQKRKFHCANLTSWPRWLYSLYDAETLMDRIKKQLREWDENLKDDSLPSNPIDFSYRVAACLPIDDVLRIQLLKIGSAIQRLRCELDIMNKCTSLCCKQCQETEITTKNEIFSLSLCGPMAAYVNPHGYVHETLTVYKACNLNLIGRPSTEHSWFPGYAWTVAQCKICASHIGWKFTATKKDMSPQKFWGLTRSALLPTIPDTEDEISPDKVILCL
T1 sequence (Q16531 2-1140 partner limits assumed): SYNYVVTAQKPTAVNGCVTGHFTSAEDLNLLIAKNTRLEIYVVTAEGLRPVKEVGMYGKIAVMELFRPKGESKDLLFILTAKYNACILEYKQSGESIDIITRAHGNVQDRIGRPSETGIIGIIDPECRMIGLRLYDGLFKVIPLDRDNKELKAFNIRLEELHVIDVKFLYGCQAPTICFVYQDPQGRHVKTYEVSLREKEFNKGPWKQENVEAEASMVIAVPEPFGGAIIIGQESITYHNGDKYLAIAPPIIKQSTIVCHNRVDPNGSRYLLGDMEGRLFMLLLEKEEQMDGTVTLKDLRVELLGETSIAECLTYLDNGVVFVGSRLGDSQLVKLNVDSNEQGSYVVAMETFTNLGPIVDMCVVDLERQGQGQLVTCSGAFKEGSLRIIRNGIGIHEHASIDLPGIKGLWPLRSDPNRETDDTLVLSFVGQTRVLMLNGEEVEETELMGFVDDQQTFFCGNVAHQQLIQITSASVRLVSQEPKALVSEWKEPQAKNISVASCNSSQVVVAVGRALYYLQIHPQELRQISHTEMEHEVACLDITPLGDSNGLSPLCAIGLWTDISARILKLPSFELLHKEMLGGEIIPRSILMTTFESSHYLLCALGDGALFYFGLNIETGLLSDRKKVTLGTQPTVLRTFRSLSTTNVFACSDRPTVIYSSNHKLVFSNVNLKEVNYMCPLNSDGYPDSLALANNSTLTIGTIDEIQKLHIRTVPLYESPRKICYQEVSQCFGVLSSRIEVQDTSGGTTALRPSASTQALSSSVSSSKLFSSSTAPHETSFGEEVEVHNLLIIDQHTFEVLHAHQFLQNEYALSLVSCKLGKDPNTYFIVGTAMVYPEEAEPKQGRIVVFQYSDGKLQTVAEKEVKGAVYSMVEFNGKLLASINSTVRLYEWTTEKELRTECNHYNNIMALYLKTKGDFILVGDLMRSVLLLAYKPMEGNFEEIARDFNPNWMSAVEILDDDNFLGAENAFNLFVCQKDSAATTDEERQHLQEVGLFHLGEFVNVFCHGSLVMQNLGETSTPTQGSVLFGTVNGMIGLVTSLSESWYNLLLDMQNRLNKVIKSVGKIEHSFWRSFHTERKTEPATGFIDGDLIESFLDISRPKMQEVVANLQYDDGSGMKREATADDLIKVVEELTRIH
CRBN/DDB1, sequence (Q96SW2 whole entry, species assumed): as the sequence (Q96SW2 whole entry, further chain) above
CRBN/DDB1, sequence (Q16531 whole entry partner, species assumed): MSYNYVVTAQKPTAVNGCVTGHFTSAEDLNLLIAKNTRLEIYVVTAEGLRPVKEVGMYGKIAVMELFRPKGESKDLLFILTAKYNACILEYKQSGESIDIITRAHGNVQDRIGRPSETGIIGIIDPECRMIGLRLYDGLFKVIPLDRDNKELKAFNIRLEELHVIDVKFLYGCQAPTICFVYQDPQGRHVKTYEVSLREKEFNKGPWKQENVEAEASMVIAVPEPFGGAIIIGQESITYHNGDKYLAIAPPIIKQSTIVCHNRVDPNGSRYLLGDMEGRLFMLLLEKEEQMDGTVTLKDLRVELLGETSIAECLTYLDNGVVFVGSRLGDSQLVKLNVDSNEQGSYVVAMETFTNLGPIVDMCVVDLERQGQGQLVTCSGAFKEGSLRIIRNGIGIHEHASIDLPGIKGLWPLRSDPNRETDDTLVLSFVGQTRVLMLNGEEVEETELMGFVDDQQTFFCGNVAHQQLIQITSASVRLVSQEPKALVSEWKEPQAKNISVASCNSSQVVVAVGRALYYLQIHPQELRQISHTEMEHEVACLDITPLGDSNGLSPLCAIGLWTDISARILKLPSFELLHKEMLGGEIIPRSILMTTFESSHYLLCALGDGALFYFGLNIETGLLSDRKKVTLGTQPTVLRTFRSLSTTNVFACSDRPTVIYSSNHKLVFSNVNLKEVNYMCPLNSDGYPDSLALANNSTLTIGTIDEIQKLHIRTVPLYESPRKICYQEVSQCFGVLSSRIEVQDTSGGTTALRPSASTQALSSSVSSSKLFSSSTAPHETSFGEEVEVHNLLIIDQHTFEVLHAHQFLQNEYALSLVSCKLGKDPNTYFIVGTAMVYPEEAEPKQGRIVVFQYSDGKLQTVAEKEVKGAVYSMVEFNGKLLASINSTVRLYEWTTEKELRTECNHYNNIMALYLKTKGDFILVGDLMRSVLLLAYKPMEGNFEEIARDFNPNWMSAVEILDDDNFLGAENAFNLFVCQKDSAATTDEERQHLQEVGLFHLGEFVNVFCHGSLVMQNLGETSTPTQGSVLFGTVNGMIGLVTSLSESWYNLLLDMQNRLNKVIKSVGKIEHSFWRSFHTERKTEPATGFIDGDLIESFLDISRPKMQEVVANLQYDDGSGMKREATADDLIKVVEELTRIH

DC50 (CK1α): < 0.1 µM
AUC [1]: 1040 ± 245 ng·h/mL
AUC(0-t) [1]: 889 ± 218 ng·h/mL
Cmax [1]: 361 ± 142 ng/mL
Tmax [1]: 1.33 ± 0.58 h
IC50 (CRBN/DDB1): 100 to 1000 nM
SMILES: C[C@@H]1Cc2ccccc2N1C(=O)Nc1ccc2c(c1)CN(C1CCC(=O)NC1=O)C2=O (stereo partly drawn) [Compound 102, (2R)—N-(2-(2,6-dioxopiperidin-3-yl)-1-oxoisoindolin-5-yl)-2-methylindoline-1-carboxamide]
